Measured values reported in article PMC8581430, “Peptide ligands targeting FGF receptors promote recovery from dorsal root crush injury via AKT/mTOR signaling” (Theranostics, 2021).

System: FGFR (phosphorylated) in DRG explants
Test: Western blot of phosphorylated FGFR in ex vivo DRG explants
Assay type: cell-based, Sprague-Dawley rat
Conditions: CH02 20 μM + BGJ398 2 μM, 4 h, n = 3
Method: Figure 5 Role of FGFR signaling in response to the CH02 peptide on promoting nerve regeneration. (A) Western blot analysis of phosphorylated FGFR expression in C5-T1 DRGs subjected to dorsal root crush injury, followed by CH02 treatment (20 μM). DRGs were collected after 3 days. Glyceraldehyde-3-phosphate dehydrogenase (GAPDH) antibodies were used as the loading control. (B) Western blot analysis of phosphorylated FGFR expression in ex vivo cultured DRG explants of adult Sprague-Dawley rats in response to CH02 treatment at different induction times. […] (D-F) Quantification of p-FGFR expression levels in panels A, B, and C. n = 3 independent experiments. Relative protein expression levels were quantified after normalization to FGFR2 or FGFR1. […] (H) Quantification of axon growth in DRG explants (G) using Neurite-J software (n = 5 for each condition; *control vs. CH02; #control vs. BGJ398; **p < 0.01, ***p < 0.001, ****p < 0.0001, #p < 0.05, ##p < 0.01 by two-way ANOVA with Dunnett's test; mean ± SEM). […] Images of random neurons were acquired by fluorescence microscopy. […] (J) Quantification of the longest axon length of each neuron randomly selected from (I) using Image-Pro Plus 6.0 software (n = 100 for each condition; *p < 0.05, **p < 0.01, ****p < 0.0001 by one-way ANOVA with Dunnett's; ns, not significant; mean ± SD). […]

CCN1CCN(c2ccc(Nc3cc(N(C)C(=O)Nc4c(Cl)c(OC)cc(OC)c4Cl)ncn3)cc2)CC1 [BGJ398] was tested. Which “effect of inhibitor on CH02-upregulated phosphorylated FGFR” value did it give?
Its value is “counteracted CH02 effects on upregulated phosphorylated FGFR levels”.
